Source: patent US20230059107A1, “STABLE TOPICAL COMPOSITIONS OF FENOLDOPAM” (TARO PHARMACEUTICAL INDUSTRIES LTD., priority 2019, published 2023)
Like-named read-outs stand apart in the source and are kept apart here. Marks after values point to notes of the source that are not given here.

Key:
[1] = system: psoriatic xenotransplants (normal human skin grafted, psoriatic patient T-cell injected); test: Human skin xenotransplant model of psoriasis in beige-SCID mice: histological evaluation and epidermal thickness; type: in vivo; details: for Mean epidermal thickness: mean of the group
Experimental: The efficacy of the topical stable Fenoldopam compositions developed according to the current disclosure for the treatment of psoriasis is evaluated in a human skin xenotransplant model in mice. Human skin xenotransplant models are optimally suited for performing preclinical assays that explore novel anti-psoriatic agents/treatment strategies before initiating clinical trials. The purpose of this study is to evaluate the effectiveness of Fenoldopam mesylate formulations on the histological parameters of psoriasis in the human T-cell-driven model of psoriasis.
The patients included in the study have classic plaque psoriasis, and were not treated for the disease. Normal skin from one healthy volunteer is obtained for grafting.
Healthy human skin pieces with a width of 0.4 mm and surface area of 1.5×1.5 cm are provided from residual skin of routine plastic surgery procedures from the Plastic Surgery Department of the Rambam Health Care Campus, Haifa, Israel. In addition, 20 mL blood samples were taken from the psoriatic patients.
The normal healthy human donor skin is transplanted onto the Beige-severe combined immuno-deficient mice (SCID) (weight ˜20 g).
The mice are divided into several treatment groups. Mice of each group receive activated allogeneic T-cells expressing high levels of NK cells receptors from the psoriatic donor.
Peripheral Blood Mononuclear Cells (PBMCs) from the psoriatic patients' blood are isolated and cultured in the presence of a high dose of IL-2 (100 U/mL of media) for 14 days to activate allogeneic T-cells expressing high levels of NK cells receptors.
Four weeks following the engraftment, each mouse is injected with 1×10^7 activated allogeneic IL2-enriched PBMCS from psoriatic patients (1×10^7 cells injected/mouse). Cells from different psoriasis patients are distributed equally between treatment groups. Each patient is represented in each treatment group.
Two weeks following the injections, the mice are divided randomly and treated daily for 14 constitutive days with the different topical formulations.
(§1) Fourteen days after starting the treatment (four weeks following the injections), blood samples are taken and the skin is harvested. The grafts are analyzed histologically and immunohistochemically for psoriatic parameters.
In this model, a psoriasis-like phenotype is induced in normal human skin grafted onto beige-severe combined immunodeficient mice by intradermal injection of natural killer/T-cells derived from psoriatic patients (Gilhar et al., J Invest Dermatol. 2002 Aug;119(2):384-91.).
The purpose of these further experiments was to verify the therapeutic effect of FMT and compare the therapeutic effects of two doses (1% versus 2%) of two different formulations (cream versus gel).
In order to address the aim of the experiment, the psoriatic humanized mice were established. 10 psoriatic patients were recruited (seven males and three females), mean age 44 years, ranging from 22 to 61 years for testing. All patients had classic plaque psoriasis. None of the patients had been treated. Normal skin from one healthy volunteer was obtained for grafting.
The experiment comprised 72 mice divided into eight groups (Table 10). All of the mice were injected with T-cells expressing NK receptors obtained from psoriatic patients according to the protocol. Thereafter, the mice were separated as follows: Group 1: non-treated control; Group 2: dexamethasone; Group 3: FMT Gel 1%; Group 4: FMT Gel 2%; Group 5: Gel (vehicle); Group 6: FMT Cream 1%; Group 7: FMT Cream 2%; and Group 8: Cream (vehicle). All groups were treated from day 14 until day 28 post T-cells injection.

[2] = system: inflammatory markers of the psoriatic xenotransplants (Ki-67, HLA-DR, CD8, CD4, IL-17); test: Human skin xenotransplant model of psoriasis: immunohistochemical staining for Ki-67, HLA-DR, CD8, CD4 and IL-17; type: in vivo
Experimental: as §1
We then stained skin sections derived from the various human xenotransplants for Ki-67 and HLA-DR: the first, a marker of cellular hyperproliferation and the second, for immune stimulation. Strong expression of Ki-67 was observed along the lower part of the epidermis in all control and vehicle groups and in the non-responders FMT xenotransplants. […] However, weak or absent HLA-DR expression was observed along the epidermis in the responders transplants treated with FMT.
Negative expression—no staining Mild—minor level of cell infiltrates of positive cells along the dermis Dense—intense level of cell infiltrates of positive cells along the dermis
To characterize the inflammatory infiltrate in the skin, we examined the expression of CD8, CD4 and IL-17+cells, which mark T lymphocytes (FIG. 1 and Tables 15, 16).
Negative expression—no staining Mild—minor level of cell infiltrates of positive cells along the dermis Dense—intense level of cell infiltrates of CD8+, CD4+IL17+positive cells along the dermis

[3] = cited from earlier work
[4] = topical bid, day 14 until day 28 post T-cells injection
[5] = intense level of cell infiltrates
[6] = minor level of cell infiltrates

Work on `C[C@@H]1C[C@H]2[C@@H]3CCC4=CC(=O)C=C[C@]4(C)[C@@]3(F)[C@@H](O)C[C@]2(C)[C@@]1(O)C(=O)CO` [Dexamethasone] yielded an Epidermal thickness ([1]; Donor 1) of 338 μm, an Epidermal thickness ([1]; Donor 2) of 280 μm and an Epidermal thickness ([1]; Donor 3) of 290 μm. The Epidermal thickness ([1]; Donor 4) was 300 μm, the Epidermal thickness ([1]; Donor 5) was 305 μm and the Epidermal thickness ([1]; Donor 6) was 260 μm. For the same compound, the Mean epidermal thickness ([1]; listed as Dexa) was 295* μm, the Mean epidermal thickness ([1]; listed as dexamethasone) was 295 ±26 μm and the “Complete Recovery (grafts/total)” value [1, 4] was 5/6. For the same compound, the “Partial Recovery (grafts/total)” value [1, 4] was 1/6, the “Psoriatic Features (grafts/total)” value [1, 4] was 0/6 and the “Epidermal HLA-DR Expression: Diffuse (grafts/total)” value ([2]; Diffuse—more than 50% of the epidermal area) was 0/6. For the same compound, the “Epidermal HLA-DR Expression: Focal (grafts/total)” value ([2]; Focal—less than 50% of the epidermal area) was 1/6, the “CD4 Expression: Dense” value ([2]; Non responders grafts) was 0/6 and the “CD4 Expression: Negative/Mild” value ([2]; Non responders grafts) was 0/6. The “CD8 Expression: Dense” value ([2]; Non responders grafts) was 0/6, the “CD8 Expression: Negative/Mild” value ([2]; Non responders grafts) was 0/6 and the “Dermal HLA-DR Expression: Dense” value ([2]; Non responders grafts) was 0/6. For the same compound, the “Dermal HLA-DR Expression: Negative/Mild” value ([2]; Non responders grafts) was 0/6, the “IL-17 Expression: Dense” value ([2]; Non responders grafts) was 0/6 and the “IL-17 Expression: Negative/Mild” value ([2]; Non responders grafts) was 0/6. For the same compound, the “CD4 Expression: Dense” value ([2]; Responders grafts) was 0/6, the “CD4 Expression: Negative/Mild” value ([2]; Responders grafts) was 6/6 and the “CD8 Expression: Dense” value ([2]; Responders grafts) was 0/6. For the same compound, the “CD8 Expression: Negative/Mild” value ([2]; Responders grafts) was 6/6, the “Dermal HLA-DR Expression: Dense” value ([2]; Responders grafts) was 0/6 and the “Dermal HLA-DR Expression: Negative/Mild” value ([2]; Responders grafts) was 6/6. For the same compound, the “IL-17 Expression: Dense” value ([2]; Responders grafts) was 0/6, the “IL-17 Expression: Negative/Mild” value ([2]; Responders grafts) was 6/6 and the “Epidermal HLA-DR Expression: Negative (grafts/total)” value ([2]; in vivo) was 5/6. For the same compound, the “CD4 positive cells along the dermis: Dense” value [2, 5] was 0/10, the “CD8 positive cells along the dermis: Dense” value [2, 5] was 0/10 and the “IL-17 positive cells along the dermis: Dense” value [2, 5] was 0/10. The “Dermal HLA-DR Expression: Dense (grafts/total)” value ([2]; intense level of cell infiltrates of positive cells along the dermis) was 0/6, the “CD4 positive cells along the dermis: Mild” value [2, 6] was 2/6 and the “CD8 positive cells along the dermis: Mild” value [2, 6] was 1/6. For the same compound, the “IL-17 positive cells along the dermis: Mild” value [2, 6] was 1/6, the “Dermal HLA-DR Expression: Mild (grafts/total)” value ([2]; minor level of cell infiltrates of positive cells along the dermis) was 2/6 and the “CD4 positive cells along the dermis: Negative” value ([2]; no staining) was 4/6. For the same compound, the “CD8 positive cells along the dermis: Negative” value ([2]; no staining) was 5/6, the “Dermal HLA-DR Expression: Negative (grafts/total)” value ([2]; no staining) was 4/6 and the “IL-17 positive cells along the dermis: Negative” value ([2]; no staining) was 5/6.
For `CS(=O)(=O)O.Oc1ccc(C2CNCCc3c2cc(O)c(O)c3Cl)cc1` (centres unmarked) [Fenoldopam mesylate, 6-chloro-2,3,4,5-tetrahydro-1-(4-hydroxyphenyl)-1H-3-benzazepine-7,8-diol, methanesulfonate], the solubility ([3]; in propylene glycol) is listed as “soluble” and the solubility ([3]; in water, ethanol and methanol) is listed as “sparingly soluble”.
